Results on 3 compounds are retold here after publication PMC2635096 (Journal of biological inorganic chemistry : JBIC : a …, 2008).

Where two headings read alike, the source gives them in different places.

Test [1] addresses NP1 (wild-type nitrophorin 1) (Rhodnius prolixus, UniProt Q26239). Nature of the test: UV/Vis ligand titration, equilibrium binding constants.
In test [2] the target is H60C_NP1 (His-60 to Cys-60 mutant of nitrophorin 1) (Rhodnius prolixus, UniProt Q26239, H82C). Nature of the test: biochemical. Format: binding.
For test [3], the system named is H60C_NP1 (His-60 to Cys-60 mutant of nitrophorin 1). The test is described as follows: biochemical. The test is classed as binding, Rhodnius prolixus. To be noted: H60C_NP1 vs NP1.
Setting [4] is: read-out: Dissociation constant (Kd) of ligand complex of NP1, 25°C, PBS buffer (50mM Na-phosphate, 100 mM NaCl, pH 7.4), UV/Vis titration.

NP1 (wild-type nitrophorin 1), sequence (Q26239 24-207): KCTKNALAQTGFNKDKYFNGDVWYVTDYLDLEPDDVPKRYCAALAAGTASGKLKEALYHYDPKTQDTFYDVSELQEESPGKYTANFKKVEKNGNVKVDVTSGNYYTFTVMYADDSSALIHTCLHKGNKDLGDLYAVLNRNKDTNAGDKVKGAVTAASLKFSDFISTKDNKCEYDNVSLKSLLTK
H60C_NP1 (His-60 to Cys-60 mutant of nitrophorin 1) (Rhodnius prolixus, UniProt Q26239, H82C), sequence (Q26239 24-207 H82C): as the sequence (Q26239 24-207) above, with H59C counted along it

Regarding `c1c[nH]cn1` [Imidazole], the Kd in test [1] (setting [4]) is 255 nM; in test [1] (read-out: Dissociation constant (Kd) of ligand complex of NP1, 25°C, PBS buffer (50mM Na-phosphate, 100 mM NaCl, pH 7.4), UV/Vis titration, listed as imidazole) it was 250 nM.
In the case of `Cc1c[nH]cn1` [4-Methylimidazole], the Kd in test [1] was 182 nM; in test [2], 560000 nM. The “Increase in dissociation constant for H60C_NP1 relative to NP1” value in test [3] was “more than three orders of magnitude”.
For `CCCCn1ccnc1` [N-(n-Butyl)imidazole], in test [1] (setting [4]), the Kd is 52 nM.

The term Kd denotes the constant that tells how readily two partners part at equilibrium.
